Values after ≈ are worked out from the molar mass of the structure shown.
How the values were obtained:
CCD-841 cells = test: MTT cytotoxicity assay, CCD-841 normal colon cells; type: cell-based; conditions: Homo sapiens, CCD-841 non cancerous cells
Method: (§1) Cytotoxicity property of Dis against HCT-116 and CCD-841 cells were measured by MTT assay as described by Mossman[77]. Briefly, cells were treated with different concentration of Dis and 5-Fu (positive control) with serial dilution factor of 2 for 8 concentrations in 96 well-plate for different time points (24 h, 48 h and 72 h). Subsequently at the end of each time point 20 µl of MTT (5 mg/ml, Affymetrix,Cleveland, OH, USA) were added to each well followed by 4 h incubation. The solutions were aspirated after 4 h and 100 µl of DMSO were added to each well. Absorbance for each well was read at 570 nm as measured by using microplate reader (Tecan Infinite multimode, Männedorf, Switzerland). Cytotoxicity (cell death) was measured by using the following formula: Celldeath(%)=sampleOD−controlOD/controlOD100
(§2) This assay was performed in triplicates in three independent experiments. The cytotoxicity property of Dis was presented as IC50 value.

caspase 9 = test: Caspase-Glo 9 bioluminescent assay; type: cell-based, human; conditions: HCT-116, 24 h, 48 h, 72 h, time dependent
Method: (§3) To assess the effect of Dis on caspase cascades in treated cells, activities of caspase-Glo 3/7, caspase-Glo 8 and caspase-Glo 9 assays (Promega, Madison, WI, USA) were performed. Briefly, HCT-116 cells with the density of 10^4 cells/well were seeded in 96 well-plates. Cells were treated with Dis for 24 h, 48 h and 72 h. This assay was performed in triplicates for each time point. A total of 6 wells were preserved for samples without cells but with media and reagents as the blank samples, and for the untreated cells as negative control. At the end of incubation time, 100 µl caspase-glo mixture were added to each well and incubated for 1 h in the dark according to the manufacturer’s instructions. Optical density was measured via multimode microplate reader (Tecan Infinite, Männedorf, Switzerland).

HCT-116 cells [1] = test: MTT cytotoxicity assay, HCT-116; type: cell-based, human; conditions: for IC50: Homo sapiens, MTT
Method: as §1, §2

NF-κB = test: Translocation of NF-κB induced by TNF-α; type: cell-based, human; conditions: HCT-116 stimulated with TNF-α, vs untreated group
Method: Confocal microscope was used to detect the suppressive effect of Dis on translocation of NF-κB from cytoplasm to nucleus induced by TNF-α (Santa Cruz, CA, USA) using cellomics nucleus factor-κB (NF-κB) activation kit (Thermo Scientific™, Pittsburgh, PA, USA). HCT-116 cells were seeded and treated with Dis at different time points in 24 well-plate covered with cover slide. An amount of 150 ng/ml of TNF-α was used as a stimulator for 24 h. Cells were then fixed and stained according to the manufacturer’s instructions. Translocation of NF-κB was investigated via confocal Leica TCS SP5 II microscope (Leica Microsystems, Mannheim, Germany) and intensity of NF-κB was measured by using LAS X software.

caspase 3/7 = test: Caspase-Glo 3/7 bioluminescent assay; type: cell-based, human; conditions: HCT-116, 24 h, 48 h, 72 h, time dependent
Method: as §3

HCT-116 cells [2] = test: Human apoptosis protein array (proteome profiler); type: cell-based; conditions: vs control
Method: Apoptosis protein expression profiling was performed using human apoptosis array (R&D Systems, Minneapolis, MN, USA) according to the manufacturer’s protocol. In brief, 2 × 10^6 HCT-116 cells were seeded and treated with Dis in 75 cm^2 flask and incubated for 48 h. Cells were harvested and lysed via lysis buffer reagent and was quantified using Pierce BCA protein assay kit (Thermo Scientific™, Pittsburgh, PA, USA). The membrane provided was blocked in blocking solution reagent and treated overnight with cell lysates protein. The membrane was washed and subsequently incubated with detection antibody cocktail and streptavidin horseradish peroxidase-conjugated. Chemiluminescent reagents were added to the membrane and then exposed to X-ray film to detect the protein expression levels in treated cells as compared to untreated cells. Images were quantified via ImageJ software (NIH, USA). The list of investigated proteins is provided as supplementary data (Table S2).

HCT-116 cells [3] = test: Annexin-V-FITC apoptosis assay; type: cell-based, human
Method: Inductions of early and late stages of apoptosis by Dis were investigated using Annexin-V-FITC assay according to the manufacturer’s instructions (BD Biosciences, San Jose, CA, USA). Briefly, 10^6 HCT-116 cells were seeded in 25 cm^2 flask followed by treatment with Dis for 24 h, 48 h and 72 h. Treated cells were harvested and washed twice with cold PBS and suspended in binding buffer followed by transferred of 10^5 cells to the 6 ml polystyrene round-bottom FACS tubes. Cells were incubated with 5 µl of PI and 5 µl of Annexin-V-FITC and introduced to the FACSCanto™II instrument (BD, San Jose, CA, USA).

SK-Hep-1 = system: SK-Hep-1; set-up: method as in PMID 19424633, PMID 27176768, PMID 26847170, PMID 20183323; conditions: SK-Hep-1, 24 h; ref [10],[13],[15],[47]; cited from earlier work
HCC = system: HCC; set-up: method as in PMID 19424633, PMID 27176768, PMID 26847170, PMID 20183323; conditions: 24 h treatment, ref [10],[13],[15],[47]; cited from earlier work
caspase 8 = test: Caspase-Glo 8 bioluminescent assay; type: cell-based, human; conditions: HCT-116, 24 h, 48 h, 72 h, time dependent
Method: as §3

In the case of COc1ccc(-c2cc(=O)c3c(O)cc(O)cc3o2)cc1O [Dis, Diosmetin], the IC50 (CCD-841 cells; 24 h) is reported as 236 ± 9.99 mg/L (≈ 788 µM), the IC50 (CCD-841 cells; 48 h) is reported as 51.95 ± 0.11 mg/L (≈ 173 µM) and the IC50 (CCD-841 cells; 72 h) is reported as 40.5 ± 9.99 mg/L (≈ 135 µM). For the same molecule, the “cleavage of caspase 9” value (caspase 9) was “significantly increased”, the IC50 (HCT-116 cells [1]; HCT-116, 24 h) was 5.56 ± 0.48 mg/L (≈ 18.5 µM) and the IC50 (HCT-116 cells [1]; HCT-116, 48 h) was 3.58 ± 0.58 mg/L (≈ 11.9 µM). For the same molecule, the IC50 (HCT-116 cells [1]; HCT-116, 72 h) was 3.41 ± 0.64 mg/L (≈ 11.4 µM), the “Selectivity Index (SI)” value (HCT-116 cells [1]; IC50 CCD-841 / IC50 HCT-116, 24 h) was 42.53 and the “Selectivity Index (SI)” value (HCT-116 cells [1]; IC50 CCD-841 / IC50 HCT-116, 48 h) was 14.51. The “Selectivity Index (SI)” value (HCT-116 cells [1]; IC50 CCD-841 / IC50 HCT-116, 72 h) was 11.88, the “translocation of NF-ƙB” value (NF-κB) was “significantly reduced” and the “cleavage of caspase 3/7” value (caspase 3/7) was “significantly increased”. The “Protein expression of caspase 3 cleavage, fold change” value (HCT-116 cells [2]; HCT-116, 3.58 µg/ml Dis, 48 h) was 2.61, the “Protein expression of pro-caspase 3, fold change” value (HCT-116 cells [2]; HCT-116, 3.58 µg/ml Dis, 48 h) was 0.75 and the “Hsp27 expression, gene and protein levels” value (HCT-116 cells [2]; HCT-116, 48 h) was “significantly decreased”. For the same molecule, the “expression of FADD” value (HCT-116 cells [2]; HCT-116, 48 h) was “significantly increased”, the “protein expression level of Bax” value (HCT-116 cells [2]; HCT-116, 48 h) was “accelerated” and the “protein expression level of Cytochrome C” value (HCT-116 cells [2]; HCT-116, 48 h) was “accelerated”. For the same molecule, the “protein expression of Survivin” value (HCT-116 cells [2]; HCT-116, 48 h) was “significantly decreased”, the Late apoptosis (HCT-116 cells [3]; HCT-116, 24 h) was 18 ± 3.6% and the Late apoptosis (HCT-116 cells [3]; HCT-116, 48 h) was 26.3 ± 3.6%. For the same molecule, the Late apoptosis (HCT-116 cells [3]; HCT-116, 72 h) was 53.15 ± 4.35%, the “population of cells in early apoptosis” value (HCT-116 cells [3]; HCT-116, 72 h of treatment) was 7.7 ± 0% and the IC50 (SK-Hep-1) was 100 mg/L (≈ 333 µM). For the same molecule, the IC50 (HCC) was 50 mg/L (≈ 167 µM) and the “cleavage of caspase 8” value (caspase 8) was “significantly increased”.

— article PMC6435658, “Investigation into the Molecular Mechanisms underlying the Anti-proliferative and Anti-tumorigenesis activities of Diosmetin against HCT-116 Human Colorectal Cancer” (Scientific Reports, 2019)
